Data from ChEMBL document CHEMBL3044982, “Cross-resistance, inheritance and biochemical mechanisms of imidacloprid resistance in B-biotype Bemisia tabaci” (2009).
In brackets after ≈: the same amount, converted by molar mass.

Columns and labels:
Assay type in all cases: functional
Bemisia tabaci [1] = assay: Resistance factor, ratio of LC50 for adult female Bemisia tabaci B-biotype NJ-Imi (sweet potato whitefly) (G30) to LC50 for adult female B-type Bemisia tabaci NJ
Bemisia tabaci [2] = assay: Insecticidal activity against adult female imidacloprid-susceptible Bemisia tabaci B-biotype NJ (sweet potato whitefly) in cotton leaf discs assessed as mortality treated for 10 secs prior to adult infestation measured after 72 hr by leaf-dip bioassay; conditions: foliar
Bemisia tabaci [3] = assay: Insecticidal activity against adult female imidacloprid-resistant Bemisia tabaci B-biotype NJ-Imi (sweet potato whitefly) (G30) in cotton leaf discs assessed as mortality treated for 10 secs prior to adult infestation measured after 72 hr by leaf-dip bioassay; conditions: foliar
Bemisia tabaci [4] = assay: Insecticidal activity against adult female imidacloprid-resistant Bemisia tabaci B-biotype NJ-Imi (sweet potato whitefly) (G15) in cotton leaf discs assessed as mortality treated for 10 secs prior to adult infestation measured after 72 hr by leaf-dip bioassay; conditions: foliar
Bemisia tabaci [5] = assay: Resistance factor, ratio of LC50 for adult female Bemisia tabaci B-biotype NJ-Imi (sweet potato whitefly) (G15) to LC50 for adult female B-type Bemisia tabaci NJ
Bemisia tabaci [6] = assay: (§1) Insecticidal activity against adult female Bemisia tabaci B-biotype NJ-Imi (sweet potato whitefly) (G15) in cotton leaf discs assessed as mortality treated for 10 secs prior to adult infestation measured after 72 hr by leaf-dip bioassay in presence of 100 mg/L GSH depleter, DEM; conditions: foliar
Bemisia tabaci [7] = assay: (§2) Insecticidal activity against female F1 progeny generated from reciprocal cross between female Bemisia tabaci B-biotype NJ-Imi (sweet potato whitefly) with male Bemisia tabaci B-biotype NJ in cotton leaf discs assessed as mortality treated for 10 secs prior to adult infestation measured after 72 hr by leaf-dip bioassay; conditions: foliar
Bemisia tabaci [8] = assay: Synergistic ratio of LC50 for adult female Bemisia tabaci B-biotype NJ-Imi (sweet potato whitefly) (G15) to LC50 for adult female Bemisia tabaci B-biotype NJ in presence of 100 mg/L GSH depleter, DEM
Bemisia tabaci [9] = assay: Synergistic ratio of LC50 for adult female Bemisia tabaci B-biotype NJ-Imi (sweet potato whitefly) (G30) to LC50 for adult female Bemisia tabaci B-biotype NJ in presence of 100 mg/L GSH depleter, DEM
Bemisia tabaci [10] = assay: as §1, with “(G30)” for “(G15)”, “cytochrome P450 monoxygenase inhibitor, PBO” for “GSH depleter, DEM”; conditions: foliar
Bemisia tabaci [11] = assay: Insecticidal activity against adult female Bemisia tabaci B-biotype NJ-Imi (sweet potato whitefly) (G30) in cotton leaf discs assessed as mortality treated for 10 secs prior to adult infestation measured after 72 hr by leaf-dip bioassay in presence of 100 mg/L esterase inhibitor, DEF; conditions: foliar
Bemisia tabaci [12] = assay: (§3) Insecticidal activity against adult female Bemisia tabaci B-biotype NJ-Imi (sweet potato whitefly) (G15) in cotton leaf discs assessed as mortality treated for 10 secs prior to adult infestation measured after 72 hr by leaf-dip bioassay in presence of 100 mg/L esterase inhibitor, DEF; conditions: foliar
Bemisia tabaci [13] = assay: as §3, with “cytochrome P450 monoxygenase” for “esterase”, “PBO” for “DEF”; conditions: foliar
Bemisia tabaci [14] = assay: Insecticidal activity against adult female Bemisia tabaci B-biotype NJ (sweet potato whitefly) in cotton leaf discs assessed as mortality treated for 10 secs prior to adult infestation measured after 72 hr by leaf-dip bioassay in presence of 100 mg/L cytochrome P450 monoxygenase inhibitor, PBO; conditions: foliar
Bemisia tabaci [15] = assay: Resistance factor, ratio of LC50 for adult male Bemisia tabaci B-biotype NJ-Imi (sweet potato whitefly) (G30) to LC50 for adult female B-type Bemisia tabaci NJ
Bemisia tabaci [16] = assay: Synergistic ratio of LC50 for adult female Bemisia tabaci B-biotype NJ-Imi (sweet potato whitefly) (G15)to LC50 for adult female Bemisia tabaci B-biotype NJ in presence of 100 mg/L esterase inhibitor, DEF
Bemisia tabaci [17] = assay: Insecticidal activity against adult female Bemisia tabaci B-biotype NJ (sweet potato whitefly) in cotton leaf discs assessed as mortality treated for 10 secs prior to adult infestation measured after 72 hr by leaf-dip bioassay in presence of 100 mg/L GSH depleter, DEM; conditions: foliar
Bemisia tabaci [18] = assay: Insecticidal activity against adult male Bemisia tabaci B-biotype NJ-Imi (sweet potato whitefly) (G30) in cotton leaf discs assessed as mortality treated for 10 secs prior to adult infestation measured after 72 hr by leaf-dip bioassay; conditions: foliar
Bemisia tabaci [19] = assay: Resistance factor, ratio of LC50 for female B-biotype Bemisia tabaci NJ-Imi F1' (sweet potato whitefly) progeny to LC50 for adult female B-type Bemisia tabaci NJ
Bemisia tabaci [20] = assay: Insecticidal activity against adult female Bemisia tabaci B-biotype NJ (sweet potato whitefly) in cotton leaf discs assessed as mortality treated for 10 secs prior to adult infestation measured after 72 hr by leaf-dip bioassay in presence of 100 mg/L esterase inhibitor, DEF; conditions: foliar
Bemisia tabaci [21] = assay: Synergistic ratio of LC50 for adult female Bemisia tabaci B-biotype NJ-Imi (sweet potato whitefly) (G30)to LC50 for adult female Bemisia tabaci B-biotype NJ in presence of 100 mg/L esterase inhibitor, DEF
Bemisia tabaci [22] = assay: Synergistic ratio of LC50 for adult female Bemisia tabaci B-biotype NJ (sweet potato whitefly) to LC50 for adult female Bemisia tabaci B-biotype NJ in presence of 100 mg/L GSH depleter, DEM
Bemisia tabaci [23] = assay: as §2, with “female F1'” for “female F1”, “between male B-biotype” for “between female”, “tabaci” for “tabaci B-biotype”, “with female B-biotype” for “with male”; conditions: foliar
Bemisia tabaci [24] = assay: Synergistic ratio of LC50 for adult female Bemisia tabaci B-biotype NJ-Imi (sweet potato whitefly) (G30) to LC50 for adult female Bemisia tabaci B-biotype NJ in presence of 100 mg/L cytochrome P450 monoxygenase inhibitor, PBO
Bemisia tabaci [25] = assay: Insecticidal activity against adult female Bemisia tabaci B-biotype NJ-Imi (sweet potato whitefly) (G30) in cotton leaf discs assessed as mortality treated for 10 secs prior to adult infestation measured after 72 hr by leaf-dip bioassay in presence of 100 mg/L GSH depleter, DEM; conditions: foliar
Bemisia tabaci [26] = assay: Synergistic ratio of LC50 for adult female Bemisia tabaci B-biotype NJ (sweet potato whitefly) to LC50 for adult female Bemisia tabaci B-biotype NJ in presence of 100 mg/L cytochrome P450 monoxygenase inhibitor, PBO
Bemisia tabaci [27] = assay: Synergistic ratio of LC50 for adult female Bemisia tabaci B-biotype NJ (sweet potato whitefly) to LC50 for adult female Bemisia tabaci B-biotype NJ in presence of 100 mg/L esterase inhibitor, DEF
Bemisia tabaci [28] = assay: Resistance factor, ratio of LC50 for female Bemisia tabaci B-biotype NJ-Imi F1 (sweet potato whitefly) progeny to LC50 for adult female B-type Bemisia tabaci NJ
Bemisia tabaci [29] = assay: Synergistic ratio of LC50 for adult female Bemisia tabaci B-biotype NJ-Imi (sweet potato whitefly) (G15) to LC50 for adult female Bemisia tabaci B-biotype NJ in presence of 100 mg/L cytochrome P450 monoxygenase inhibitor, PBO

SMILES: CC[C@H](C)[C@H]1O[C@]2(C=C[C@@H]1C)C[C@@H]1C[C@@H](C/C=C(\C)[C@@H](O[C@H]3C[C@H](OC)[C@@H](O[C@H]4C[C@H](OC)[C@@H](O)[C@H](C)O4)[C@H](C)O3)[C@@H](C)/C=C/C=C3\CO[C@@H]4[C@H](O)C(C)=C[C@@H](C(=O)O1)[C@]34O)O2.CO[C@H]1C[C@H](O[C@H]2[C@H](C)O[C@@H](O[C@@H]3/C(C)=C/C[C@@H]4C[C@@H](C[C@]5(C=C[C@H](C)[C@@H](C(C)C)O5)O4)OC(=O)[C@@H]4C=C(C)[C@@H](O)[C@H]5OC/C(=C\C=C\[C@@H]3C)[C@]54O)C[C@@H]2OC)O[C@@H](C)[C@@H]1O [ABAMECTIN]
- RatioLC50 (Bemisia tabaci [1]): 1
- LC50 (Bemisia tabaci [2]): 0.8 µg/mL
- LC50 (Bemisia tabaci [3]): 0.92 µg/mL

SMILES: C/C(=N\C#N)N(C)Cc1ccc(Cl)nc1 [ACETAMIPRID]
- LC50 (Bemisia tabaci [4]): 63 µg/mL (≈ 283 µM)
- RatioLC50 (Bemisia tabaci [1]): 143
- LC50 (Bemisia tabaci [2]): 1.3 µg/mL (≈ 5.84 µM)
- LC50 (Bemisia tabaci [3]): 186 µg/mL (≈ 835 µM)
- RatioLC50 (Bemisia tabaci [5]): 49

SMILES: CC1(C)C(C=C(Cl)Cl)C1C(=O)OC(C#N)c1cccc(Oc2ccccc2)c1 (stereo not drawn) [ALPHA-CYPERMETHRIN]
- LC50 (Bemisia tabaci [4]): 230 µg/mL (≈ 552 µM)
- RatioLC50 (Bemisia tabaci [1]): 1
- LC50 (Bemisia tabaci [2]): 226 µg/mL (≈ 543 µM)
- LC50 (Bemisia tabaci [3]): 263 µg/mL (≈ 632 µM)
- RatioLC50 (Bemisia tabaci [5]): 1

SMILES: CN(C)C(CSC(N)=O)CSC(N)=O [CARTAP]
- RatioLC50 (Bemisia tabaci [1]): 11
- LC50 (Bemisia tabaci [2]): 1.55 µg/mL (≈ 6.53 µM)
- LC50 (Bemisia tabaci [3]): 17.4 µg/mL (≈ 73.3 µM)

SMILES: O=[N+]([O-])/N=C1\NCCN1Cc1ccc(Cl)nc1 [IMIDACLOPRID]
- LC50 (Bemisia tabaci [4]): 254 µg/mL (≈ 993 µM)
- LC50 (Bemisia tabaci [6]): 273 µg/mL
- LC50 (Bemisia tabaci [7]): 30.9 µg/mL (≈ 121 µM)
- RatioLC50 (Bemisia tabaci [8]): 0.9
- RatioLC50 (Bemisia tabaci [9]): 1.4
- LC50 (Bemisia tabaci [10]): 231 µg/mL
- LC50 (Bemisia tabaci [11]): 371 µg/mL
- LC50 (Bemisia tabaci [12]): 94 µg/mL
- LC50 (Bemisia tabaci [13]): 102 µg/mL
- LC50 (Bemisia tabaci [14]): 0.91 µg/mL
- RatioLC50 (Bemisia tabaci [15]): 415
- RatioLC50 (Bemisia tabaci [16]): 2.7
- LC50 (Bemisia tabaci [17]): 1.22 µg/mL
- RatioLC50 (Bemisia tabaci [1]): 490
- LC50 (Bemisia tabaci [18]): 411 µg/mL (≈ 1610 µM)
- RatioLC50 (Bemisia tabaci [19]): 29
- LC50 (Bemisia tabaci [2]): 0.99 µg/mL (≈ 3.87 µM)
- LC50 (Bemisia tabaci [20]): 0.4 µg/mL
- RatioLC50 (Bemisia tabaci [21]): 1.3
- LC50 (Bemisia tabaci [3]): 485 µg/mL (≈ 1900 µM)
- RatioLC50 (Bemisia tabaci [22]): 0.8
- LC50 (Bemisia tabaci [23]): 28.6 µg/mL (≈ 112 µM)
- RatioLC50 (Bemisia tabaci [24]): 2.1
- LC50 (Bemisia tabaci [25]): 357 µg/mL
- RatioLC50 (Bemisia tabaci [26]): 1.1
- RatioLC50 (Bemisia tabaci [27]): 2.5
- RatioLC50 (Bemisia tabaci [28]): 31
- RatioLC50 (Bemisia tabaci [5]): 257
- RatioLC50 (Bemisia tabaci [29]): 2.5

SMILES: CN(C)C(CSS(=O)(=O)[O-])CSS(=O)(=O)O.[Na+] [MONOSULTAP]
- LC50 (Bemisia tabaci [4]): 297 µg/mL
- RatioLC50 (Bemisia tabaci [1]): 7
- LC50 (Bemisia tabaci [2]): 43.9 µg/mL
- LC50 (Bemisia tabaci [3]): 294 µg/mL
- RatioLC50 (Bemisia tabaci [5]): 7

SMILES: CCN(Cc1ccc(Cl)nc1)/C(=C/[N+](=O)[O-])NC [NITENPYRAM]
- RatioLC50 (Bemisia tabaci [1]): 94
- LC50 (Bemisia tabaci [2]): 0.99 µg/mL (≈ 3.66 µM)
- LC50 (Bemisia tabaci [3]): 93 µg/mL (≈ 344 µM)

SMILES: N#C/N=C1\SCCN1Cc1ccc(Cl)nc1 [THIACLOPRID]
- RatioLC50 (Bemisia tabaci [1]): 37
- LC50 (Bemisia tabaci [2]): 1.02 µg/mL (≈ 4.04 µM)
- LC50 (Bemisia tabaci [3]): 37.3 µg/mL (≈ 148 µM)

SMILES: CN1COCN(Cc2cnc(Cl)s2)/C1=N\[N+](=O)[O-] [THIAMETHOXAM]
- LC50 (Bemisia tabaci [4]): 110 µg/mL (≈ 377 µM)
- RatioLC50 (Bemisia tabaci [1]): 243
- LC50 (Bemisia tabaci [2]): 1.19 µg/mL (≈ 4.08 µM)
- LC50 (Bemisia tabaci [3]): 289 µg/mL (≈ 991 µM)
- RatioLC50 (Bemisia tabaci [5]): 92
